In patent US20240207265A1, “TREATMENT OF CNS DISEASES WITH sGC STIMULATORS” (Tisento Therapeutics Inc., priority 2021, published 2024):

Test system: sleep-stage specific pharmaco-EEG
Assay: Sleep-wake pharmaco-EEG in telemeter-implanted rats
Assay type: in vivo, rat
From the text: Young adult male Sprague-Dawley (SD) rats (˜275-325 grams on arrival) from Envigo (Indianapolis, IN) were used in the study. Upon receipt, rats were assigned unique identification numbers and housed with 3 rats per cage in polycarbonate cages with micro-isolator filter tops. All rats were examined and weighed prior to initiation of the study to assure adequate health and suitability. During the course of the study, 12/12 light/dark cycles were maintained. The room temperature was maintained between […] and 23° C. with a relative humidity maintained around 50%. Chow and water were provided ad libitum for the duration of the study. Following surgery, rats were single housed. After a period of recovery (7-10 days), animals were transferred to an EEG recording room and placed over a DSI receiver for recordings.
• a. Vehicle A • i. Route: PO • ii. Volume: 10 ml/kg • iii. Formulation: Water • b. Compound I-14 at 3 mg/kg • i. Route: PO • ii. Volume: 10 ml/kg • iii. Formulation: 3 mg/kg in water • c. Compound I-14 at 10 mg/kg • i. Route: PO • ii. Volume: 10 ml/kg • iii. Formulation: 10 mg/kg in water • d. Compound I-14 at 30 mg/kg • i. Route: PO • ii. Volume: 10 ml/kg • iii. Formulation: 30 mg/kg in water
Briefly, animals were implanted with DSI Telemetry devices (F50-EET) in a 3 channel (lead pairs) configuration. Note the positive and negative lead placements for each location. Each of the EEG channels on the DSI transmitter functions as a differential input whereby the differential input measures the difference between the positive and negative leads. Frontal/Parietal (right): (+) 2 mm Anterior, 2 mm Lateral; (−) 4 mm Posterior, 2 mm Lateral; Frontal/Frontal (bihemispheric): (+) 2 mm Anterior, 2 mm Lateral (right); (−) 2 mm Anterior, 2 mm Lateral (left); and neck EMG.
This study followed a Monday and Thursday dosing/recording schedule, where Baseline EEG was recorded 2 hours and then rats received first dose of Compound I-14 at 0.3, 3 or 10 mg/kg or Vehicle A (all orally) between 7:50-8:00 AM and a second dose of the same after about 12 hours, and EEG continued 12 hours afterwards. • EEG Recordings began at 6 AM (at time lights turn on) • Dosing occurred at 7:50 am AM (1 hour 50 minutes after lights ON) • 2nd dosing (same compound) occurred at 7:50 PM (1 hour and 50 minutes after lights OFF) • EEG Recordings continued until 7:50 AM the following day (24 hours after 1st dose and 12 hours after 2nd dose).
Animals were tested in a cross-over design with at least 72-hour washout period between doses. On each testing day, animals received compound or vehicle orally just under 2 hours (7:50 AM) after lights on (6:00 AM). Data were recorded from 2 hours prior to dosing and recorded continuously for 24 hours post dose.
Raw EEG recordings were manually scored using Neuroscore software (Data Sciences International) to identify sleep stages: Active Wake, Quiet Wake, NREM and REM. Using NeuroScore (DSI), artifacts were removed offline from the data and sleep stages assigned manually for every 10 s epoch using EEG, EMG and Locomotor activity (LMA) by conventional methods as previously described (Ivarsson et al., 2005; Parmentier-Batteur et al., 2012; Leiser et al., 2014, 2015) using the fronto-parietal EEG, LMA and EMG: active wake (less regular, low-amplitude EEG with high EMG and LMA activity); quiet wake (less regular, low-amplitude EEG, with low EMG and no LMA activity); NREM (consisting of high-amplitude irregular waves with predominant delta (1-4 Hz), low EMG and no LMA); REM sleep (stable, low-amplitude waves dominated by theta (4-8 Hz) with near absent EMG and no LMA).
The sleep stage data were exported from a Neuroscore report template of sleep state time per each 15 min (2 hours pre-dose to 4 hours post-dose). The onset of the first sleep and first REM were also reported directly from a Neuroscore report template. […]

SMILES: Cc1cc(F)c(Cc2nc(-c3ncc(F)c(O)n3)cn3ccnc23)cc1F [Compound I-14, 5-fluoro-2-(8-(2,5-difluoro-4-methylbenzyl)imidazo[1,2-a]pyrazin-6-yl)pyrimidin-4-ol]
- EEG spectral power in QW (3 mg/kg PO): increased low gamma 0-180 minutes post dose
- EEG spectral power in QW (30 mg/kg PO): increased low gamma 0-240 and high gamma 0-180 minutes post dose
- EEG spectral power in NREM (30 mg/kg PO, ˜0-300 minutes post dose): decreased delta, theta, alpha and increased low and high gamma
- REM and NREM in hypnograms vs vehicle (A) group (high dose (30 mg/kg) PO): notable decrease in REM and NREM
- onset of NREM, REM and REM latency (high dose (30 mg/kg) PO): delayed
- Quiet Wake in hypnograms (highest dose (30 mg/kg) PO): increase in Quiet Wake
